We go through one substance from US10293020B2, “Peptide therapeutics and methods for using same” (Stealth BioTherapeutics Corp, priority 2013, dated 2019).

Series [1] can be described thus: Variable temperature static 31P NMR of membrane integrity. In kind it is physicochemical. To be noted: P:L=1:12.5, 280 K-360 K. The source says: (§1) Large unilamellar vesicles (LUVs) with a transmembrane gradient of about −180 mV are constructed, composed of a mixture of cardiolipin (CL, 10% mol), phosphatidylcholine (PC, 50% mol), and phosphatidylethanolamine (PE, 40% mol). An electrochemical gradient is incorporated because the transloation of MPPs is known to be highly dependent on electrochemical potential. Spectra from three different peptide-lipid systems are compared: Mn^2+ free, Mn^2+ bound to one side of the vesicle, and Mn^2+ bound to both the inside and outside of the vesicle.
(§2) The spinning rate for all MAS experiments is 5 kHz, performed at 310 K. ^13C direct polarization (DP) MAS NMR spectra is decoupled with two pulse phase modulation (TPPM) at ^1H field strengths of 30 kHz. Typical radiofrequency (rf) pulse lengths are ˜5 μs for ^13C and ˜2 μs for ^1H. Static ^31P spectra are decoupled with WALTZ-16 at ^1H field strengths of 6 kHz. Typical rf pulse lengths are ˜4 μs for ^31P.
Static ^31P chemical shift anisotropy NMR measurements are conducted at variable temperatures (280 K-360 K) to determine if any changes in membrane morphology or lipid transition temperatures occurr upon peptide binding. The ^31P NMR spectra of the model mitochondria membranes alone are recorded to provide a comparison to the peptide-bound membranes. […]

Series [2] in a line: 13C MAS PRE solid-state NMR of peptide in Mn2+-bound vesicles. It counts as physicochemical.
Excerpt: as §1
A pH difference is used to establish a transmembrane gradient. The membrane encapsulates 300 mM pH 4 phosphate buffer inside the vesicle and 10 mM pH 7 phosphate buffer outside to establish an electrochemical potential of −177 mV, which is reflective of the biologically encountered mitochondrial gradient of −180 mV. The existence of a three unit pH gradient is confirmed by the fluorescence response of 9-aminoacridine as previously described.
Hydrated CL/PC/PE membranes are formed by dissolving the lipids in a 95:5 benzene:ethanol mixture at an appropriate molar ratio of 0.1/0.5/0.4, respectively. The lipid mixture is lyophilized overnight. The dried lipid cake is rehydrated with 300 mM phosphate buffer at pH 4 which is heated to 85° C. The rehydrated lipid sample is incubated for 2 hours at 85° C. and vortexed periodically to produce multilamellar vesicles (MLVs). The resulting MLVs are down-sized using a mini extruder (Avanti Polar Lipids, Inc.) and passed through a 100 nm polycarbonate membrane 21 times to produce LUVs of uniform diameter of 100 nm. The size of the vesicles is confirmed by dynamic light scattering on a ZetaPALS particle size analyzer. The LUVs are dialyzed for at least 8 hours using a Slide-A-Lyzer (Thermo Fisher Scientific) to remove the low pH, high salt buffer and replace it with 10 mM phosphate buffer at pH 7 for the exterior membrane environment.
After dialysis, the MPP is added at the appropriate molar ratio (P:L=1:10 or P:L=1:40) to the LUVs and incubated overnight. The MPP-lipid mixture is centrifuged at 160 000 g for 1.5 hours to yield a hydrated pellet, which is packed into a 200 μL MAS rotor. For the Mn^2+ containing samples, the Mn^2+ solution is prepared from MnCl2.4H2O and added at 8 mol % of the lipids. To obtain one side Mn^2+ bound vesicles, the Mn^2+ solution is either added after ultracentrifugation or during extrusion, producing outside-bound and inside-bound one side Mn^2+ bound samples. For two side Mn^2+ bound vesicles, the vesicles are extruded with the appropriate percentage of Mn^2+ and had Mn^2+ added after dialysis to replace the ions lost during this process.
as §2
To assess the remaining two mechanisms of translocation (electroporation and guanidinium-phosphate complexation), a ^13C MAS NMR PRE method at 310 K is used. In order to assure asymmetric distribution of Mn^2+ paramagnetic ions with the new model inner mitochondrial membranes, the ion position is monitoted with the ^31P NMR signal of the lipid heagroups. Without paramagnetic ions present, the entire signal is measured from all the phospholipid headgroups. The addition of Mn^2+ to the outside of the vesicles is expected to cause signal attenuation of about half the lipids, corresponding to dephasing of the outer leaflet. When the paramagnetic ions are on both sides of the bilayer, the entire ^31P signal is expected to be killed because all lipid headgroups will be in close proximity to Mn^2+. […]

Non-standard residues stand in square brackets, D forms with d. No end group written: not given here. Cha = N[C@@H](CC1CCCCC1)C(=O)O

For [Cha]R[Cha]K-NH2 [MPP], in series [1], the “effect on bilayer integrity” value is given as “does not alter the bilayer integrity”. In addition, the figures for the “insertion depth in the bilayer” value in series [2] (P:L=1:10) and in series [2] (P:L=1:40) were “inserted into both leaflets at C2” and “inserted at approximately C1-C2”, respectively. Also, the “leaflet distribution of the peptide” value in series [2] (high peptide concentration, P:L=1:10) is “distributed in both the inner and outer leaflet”; in series [2] (low peptide concentration, P:L=1:40) it was “binds only to the outer leaflet”. Moreover, the “peptide 13C peak signal intensity retained vs unbound sample” value in series [2] (one side Mn2+ bound, P:L=1:10) is recorded as about 75%. Also, in series [2] (two side Mn2+ bound, P:L=1:10), the “peptide 13C peak signal retention” value was “about 50%”.
